From ChEMBL document CHEMBL5465560, “Selectivity Literature for EUbOPEN Chemogenomic Library” (2024)

Assays:
[1] = molecular target: T1, Ephrin type-A receptor 3 (Homo sapiens) (UniProt P29320); test: Selectivity interaction (LanthaScreen Eu Kinase Binding Assay) EUB0001632a EPHA3; conditions: at 10 µM
T1 sequence (whole entry): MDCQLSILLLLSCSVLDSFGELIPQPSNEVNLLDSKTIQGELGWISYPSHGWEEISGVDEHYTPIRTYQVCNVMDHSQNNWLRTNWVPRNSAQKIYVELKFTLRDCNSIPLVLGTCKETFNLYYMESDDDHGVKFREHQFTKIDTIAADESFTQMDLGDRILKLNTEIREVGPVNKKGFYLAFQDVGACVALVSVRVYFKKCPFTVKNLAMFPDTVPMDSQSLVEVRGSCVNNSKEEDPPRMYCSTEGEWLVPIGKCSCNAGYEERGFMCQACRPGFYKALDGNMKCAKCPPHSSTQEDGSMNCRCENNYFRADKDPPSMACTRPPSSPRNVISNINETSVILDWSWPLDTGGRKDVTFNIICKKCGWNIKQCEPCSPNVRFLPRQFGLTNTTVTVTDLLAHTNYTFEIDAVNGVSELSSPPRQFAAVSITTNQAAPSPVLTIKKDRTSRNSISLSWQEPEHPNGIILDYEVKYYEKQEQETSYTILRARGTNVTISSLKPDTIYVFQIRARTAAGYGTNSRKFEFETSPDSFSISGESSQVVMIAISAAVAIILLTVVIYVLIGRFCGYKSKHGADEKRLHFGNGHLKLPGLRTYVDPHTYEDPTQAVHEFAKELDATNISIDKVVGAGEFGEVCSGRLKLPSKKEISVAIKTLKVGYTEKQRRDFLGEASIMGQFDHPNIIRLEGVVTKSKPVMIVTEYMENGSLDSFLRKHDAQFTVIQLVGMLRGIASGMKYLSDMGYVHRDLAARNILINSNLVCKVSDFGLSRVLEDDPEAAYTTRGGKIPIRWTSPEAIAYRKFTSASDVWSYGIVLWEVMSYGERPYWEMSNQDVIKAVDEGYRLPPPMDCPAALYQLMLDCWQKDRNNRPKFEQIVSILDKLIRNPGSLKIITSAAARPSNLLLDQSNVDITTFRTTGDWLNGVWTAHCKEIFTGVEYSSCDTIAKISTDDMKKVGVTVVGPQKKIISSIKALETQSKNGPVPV

[2] = molecular target: T2, Mitogen-activated protein kinase kinase kinase kinase 2 (Homo sapiens) (UniProt Q12851); test: Selectivity interaction (SelectScreen profiling (Invitrogen)) EUB0000607a MAP4K2; conditions: at 2 µM
T2 sequence (whole entry): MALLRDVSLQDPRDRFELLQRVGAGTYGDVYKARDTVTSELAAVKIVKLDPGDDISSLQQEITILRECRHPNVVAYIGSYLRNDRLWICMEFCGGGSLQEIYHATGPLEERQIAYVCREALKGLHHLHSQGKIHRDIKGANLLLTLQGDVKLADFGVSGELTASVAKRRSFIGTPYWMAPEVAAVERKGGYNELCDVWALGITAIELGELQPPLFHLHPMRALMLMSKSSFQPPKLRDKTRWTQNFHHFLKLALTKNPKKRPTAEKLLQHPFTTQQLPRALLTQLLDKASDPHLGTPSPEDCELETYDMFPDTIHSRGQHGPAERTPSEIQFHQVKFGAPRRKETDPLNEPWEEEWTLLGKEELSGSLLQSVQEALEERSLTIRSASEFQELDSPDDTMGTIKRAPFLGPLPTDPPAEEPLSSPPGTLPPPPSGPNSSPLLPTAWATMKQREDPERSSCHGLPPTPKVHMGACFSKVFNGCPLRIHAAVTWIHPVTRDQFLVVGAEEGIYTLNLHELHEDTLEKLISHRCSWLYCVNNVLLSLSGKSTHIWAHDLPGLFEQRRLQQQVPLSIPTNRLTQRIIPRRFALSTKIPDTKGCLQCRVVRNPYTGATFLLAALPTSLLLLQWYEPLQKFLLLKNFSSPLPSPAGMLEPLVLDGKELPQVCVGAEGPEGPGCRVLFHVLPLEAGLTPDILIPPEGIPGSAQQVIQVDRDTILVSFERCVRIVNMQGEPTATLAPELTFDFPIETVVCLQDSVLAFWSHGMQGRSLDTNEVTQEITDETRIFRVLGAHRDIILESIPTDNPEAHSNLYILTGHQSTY

[3] = molecular target: Macrophage colony-stimulating factor 1 receptor (Homo sapiens) (UniProt P07333); test: Selectivity interaction (Upstate Kinase Profiler service (Millipore)) EUB0000056c CSF1R; conditions: at 1 µM
[4] = test system: Mast/stem cell growth factor receptor Kit (Homo sapiens), P10721 [L576P]; test: (§1) Selectivity interaction (KinomeScan (DiscoverX)) EUB0000595a KIT; conditions: at 10 µM
[5] = test system: Mast/stem cell growth factor receptor Kit (Homo sapiens), P10721 [D816V]; test: as §1; conditions: at 10 µM
[6] = test system: Mast/stem cell growth factor receptor Kit (Homo sapiens), P10721 [V559D,T670I]; test: as §1; conditions: at 10 µM
[7] = test system: Mast/stem cell growth factor receptor Kit (Homo sapiens), P10721 [V559D,V654A]; test: as §1; conditions: at 10 µM
[8] = test system: Mast/stem cell growth factor receptor Kit (Homo sapiens), P10721 [D816H]; test: as §1; conditions: at 10 µM
[9] = test system: Mast/stem cell growth factor receptor Kit (Homo sapiens), P10721 [V559D]; test: as §1; conditions: at 10 µM
[10] = molecular target: T3, Dual specificity mitogen-activated protein kinase kinase 3 (Homo sapiens) (UniProt P46734); conditions: at 10 µM
T3 sequence (whole entry): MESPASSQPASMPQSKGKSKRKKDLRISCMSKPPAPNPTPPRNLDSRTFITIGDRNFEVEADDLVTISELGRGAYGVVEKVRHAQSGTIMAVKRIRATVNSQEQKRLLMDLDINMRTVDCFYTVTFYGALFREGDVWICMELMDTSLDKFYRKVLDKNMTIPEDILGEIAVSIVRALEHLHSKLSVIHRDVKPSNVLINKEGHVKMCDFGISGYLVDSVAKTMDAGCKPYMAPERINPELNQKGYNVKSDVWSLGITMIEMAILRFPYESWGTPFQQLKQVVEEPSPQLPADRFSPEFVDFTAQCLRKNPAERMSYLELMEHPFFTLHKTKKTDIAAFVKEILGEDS

[11] = test system: Epidermal growth factor receptor (Homo sapiens), P00533 [UNDEFINED MUTATION]; conditions: at 10 µM
Sequence of Epidermal growth factor receptor (Homo sapiens), P00533 [UNDEFINED MUTATION] (P00533 whole entry, looked up, change not shown): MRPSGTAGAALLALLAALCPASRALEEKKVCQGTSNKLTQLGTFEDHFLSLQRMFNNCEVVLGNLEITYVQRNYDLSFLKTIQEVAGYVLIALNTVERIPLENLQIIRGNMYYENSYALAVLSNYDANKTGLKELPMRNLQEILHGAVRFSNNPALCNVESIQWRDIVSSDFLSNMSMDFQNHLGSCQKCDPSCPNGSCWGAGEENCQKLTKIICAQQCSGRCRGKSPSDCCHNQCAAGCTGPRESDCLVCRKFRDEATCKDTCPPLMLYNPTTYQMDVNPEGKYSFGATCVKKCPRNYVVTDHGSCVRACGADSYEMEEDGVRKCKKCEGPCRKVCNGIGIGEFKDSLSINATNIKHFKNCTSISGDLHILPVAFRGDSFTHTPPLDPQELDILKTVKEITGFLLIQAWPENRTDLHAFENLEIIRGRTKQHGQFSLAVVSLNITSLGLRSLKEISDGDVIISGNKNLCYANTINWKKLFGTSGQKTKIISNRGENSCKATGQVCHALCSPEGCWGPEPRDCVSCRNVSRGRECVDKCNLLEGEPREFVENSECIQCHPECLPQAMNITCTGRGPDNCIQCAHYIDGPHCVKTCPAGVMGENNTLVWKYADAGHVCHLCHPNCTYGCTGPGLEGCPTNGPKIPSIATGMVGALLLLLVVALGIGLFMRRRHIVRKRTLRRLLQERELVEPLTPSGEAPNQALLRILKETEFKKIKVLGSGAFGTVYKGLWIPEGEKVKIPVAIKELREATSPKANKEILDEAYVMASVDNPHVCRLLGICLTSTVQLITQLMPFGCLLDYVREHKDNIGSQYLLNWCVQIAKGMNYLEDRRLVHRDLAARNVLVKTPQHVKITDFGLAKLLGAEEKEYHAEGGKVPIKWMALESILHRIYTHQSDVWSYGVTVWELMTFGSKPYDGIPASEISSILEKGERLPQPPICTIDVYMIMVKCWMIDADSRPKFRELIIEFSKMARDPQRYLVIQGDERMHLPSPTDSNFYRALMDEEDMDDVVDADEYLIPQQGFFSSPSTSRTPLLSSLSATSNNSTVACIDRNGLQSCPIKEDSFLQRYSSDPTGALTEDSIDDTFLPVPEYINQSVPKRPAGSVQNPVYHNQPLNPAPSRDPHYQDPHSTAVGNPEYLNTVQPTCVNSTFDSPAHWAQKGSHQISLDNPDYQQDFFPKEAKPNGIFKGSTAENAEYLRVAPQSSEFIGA

Sequence of Mast/stem cell growth factor receptor Kit (Homo sapiens), P10721 [V559D,V654A] (P10721 whole entry V559D/V654A): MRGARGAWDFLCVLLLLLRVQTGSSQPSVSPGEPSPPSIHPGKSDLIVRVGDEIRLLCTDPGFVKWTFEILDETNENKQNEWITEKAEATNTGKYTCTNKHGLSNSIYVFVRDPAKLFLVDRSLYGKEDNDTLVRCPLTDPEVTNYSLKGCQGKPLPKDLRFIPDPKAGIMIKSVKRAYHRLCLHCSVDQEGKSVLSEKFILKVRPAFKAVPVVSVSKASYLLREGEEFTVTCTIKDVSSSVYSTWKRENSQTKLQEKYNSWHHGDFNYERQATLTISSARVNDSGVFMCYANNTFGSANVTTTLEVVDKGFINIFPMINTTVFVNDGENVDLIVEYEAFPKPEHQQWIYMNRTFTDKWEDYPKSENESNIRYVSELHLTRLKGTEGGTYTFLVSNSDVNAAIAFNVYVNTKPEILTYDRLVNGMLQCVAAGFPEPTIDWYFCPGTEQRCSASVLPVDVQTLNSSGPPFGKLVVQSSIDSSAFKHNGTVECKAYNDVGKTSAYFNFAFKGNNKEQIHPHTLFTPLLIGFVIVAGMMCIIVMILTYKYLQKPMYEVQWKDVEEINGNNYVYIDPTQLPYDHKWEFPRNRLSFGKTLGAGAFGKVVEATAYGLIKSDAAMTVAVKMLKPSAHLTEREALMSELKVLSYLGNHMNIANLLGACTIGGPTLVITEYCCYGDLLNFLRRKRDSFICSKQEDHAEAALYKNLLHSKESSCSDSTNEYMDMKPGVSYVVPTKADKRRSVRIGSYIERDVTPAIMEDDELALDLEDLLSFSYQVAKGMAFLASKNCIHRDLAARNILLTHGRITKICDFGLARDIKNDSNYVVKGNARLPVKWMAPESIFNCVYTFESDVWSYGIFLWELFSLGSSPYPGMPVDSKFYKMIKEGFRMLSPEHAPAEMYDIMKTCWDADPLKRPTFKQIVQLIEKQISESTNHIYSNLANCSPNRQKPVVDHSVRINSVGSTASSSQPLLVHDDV
Sequence of Mast/stem cell growth factor receptor Kit (Homo sapiens), P10721 [L576P] (P10721 whole entry L576P): as the sequence (P10721 whole entry V559D/V654A) above, with D559V, L576P, A654V counted along it
Sequence of Mast/stem cell growth factor receptor Kit (Homo sapiens), P10721 [V559D,T670I] (P10721 whole entry V559D/T670I): as the sequence (P10721 whole entry V559D/V654A) above, with A654V, T670I counted along it
Sequence of Macrophage colony-stimulating factor 1 receptor (Homo sapiens) (P07333 whole entry): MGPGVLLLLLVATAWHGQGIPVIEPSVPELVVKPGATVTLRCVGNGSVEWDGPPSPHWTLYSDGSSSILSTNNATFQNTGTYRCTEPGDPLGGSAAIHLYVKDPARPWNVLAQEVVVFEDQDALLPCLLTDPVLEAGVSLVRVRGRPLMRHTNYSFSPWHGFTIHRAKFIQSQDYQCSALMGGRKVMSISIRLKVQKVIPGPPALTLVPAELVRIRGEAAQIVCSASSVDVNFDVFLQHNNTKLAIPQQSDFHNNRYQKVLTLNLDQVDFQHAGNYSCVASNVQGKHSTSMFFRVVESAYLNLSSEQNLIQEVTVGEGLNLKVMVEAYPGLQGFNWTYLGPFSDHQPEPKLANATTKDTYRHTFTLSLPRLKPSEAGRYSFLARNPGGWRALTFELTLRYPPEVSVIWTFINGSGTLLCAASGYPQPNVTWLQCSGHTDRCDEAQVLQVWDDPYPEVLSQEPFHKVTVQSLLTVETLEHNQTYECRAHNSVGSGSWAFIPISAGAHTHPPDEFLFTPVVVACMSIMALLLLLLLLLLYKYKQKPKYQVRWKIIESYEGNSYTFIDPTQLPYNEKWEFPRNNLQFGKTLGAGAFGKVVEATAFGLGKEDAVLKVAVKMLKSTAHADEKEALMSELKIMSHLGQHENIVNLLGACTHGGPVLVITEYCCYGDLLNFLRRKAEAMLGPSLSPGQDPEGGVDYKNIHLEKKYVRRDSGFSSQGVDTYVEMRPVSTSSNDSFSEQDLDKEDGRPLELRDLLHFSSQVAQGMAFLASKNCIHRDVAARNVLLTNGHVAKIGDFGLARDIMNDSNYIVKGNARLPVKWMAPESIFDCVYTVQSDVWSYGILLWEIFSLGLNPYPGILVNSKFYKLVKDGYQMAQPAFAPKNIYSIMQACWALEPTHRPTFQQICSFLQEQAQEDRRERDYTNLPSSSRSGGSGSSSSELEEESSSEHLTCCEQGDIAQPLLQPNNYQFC
Sequence of Mast/stem cell growth factor receptor Kit (Homo sapiens), P10721 [D816H] (P10721 whole entry D816H): as the sequence (P10721 whole entry V559D/V654A) above, with D559V, A654V, D816H counted along it
Sequence of Mast/stem cell growth factor receptor Kit (Homo sapiens), P10721 [D816V] (P10721 whole entry D816V): as the sequence (P10721 whole entry V559D/V654A) above, with D559V, A654V, D816V counted along it
Sequence of Mast/stem cell growth factor receptor Kit (Homo sapiens), P10721 [V559D] (P10721 whole entry V559D): as the sequence (P10721 whole entry V559D/V654A) above, with A654V counted along it

**Q.** Which % of inhibition [1] does the source give for `Cn1cc(-n2cnc3c(NCc4nc5cc(Cl)c(Cl)cc5[nH]4)nc(N4CCOCC4)nc32)cn1` here?
**A.** -19.5%

**Q.** `CNC(=O)Nc1ccc(-c2nc(N3CC4CCC(C3)O4)c3cnn(C4CCC5(CC4)OCCO5)c3n2)cc1` was tested. Which % of inhibition [2] did it give?
**A.** 3%

**Q.** With `Cc1ccc(-c2ccc3c(ccc4sc5c(c43)NC[C@@H](C)NC5=O)n2)cn1` as the molecule, how does the % of inhibition [3] read?
**A.** 13%

**Q.** What does the source list for `COCC(=O)NC/C=C/c1ccc2ncnc(Nc3ccc(Oc4ccc(C)nc4)c(C)c3)c2c1` [CP-724714]?
**A.** % of control [4]: 54%; % of control [5]: 89%; % of control [6]: 100%; % of control [7]: 88%; % of control [8]: 100%; % of control [9]: 17%

**Q.** What does the source list for `Cc1cc([C@@H](C)Nc2ccccc2C(=O)O)c2nc(N3CCOCC3)cc(=O)n2c1` [AZD-6482]?
**A.** % of control [10]: 100%; % of control [11]: 100%
